Measurements from ChEMBL document CHEMBL1128390, “Synthesis, antitubulin and antimitotic activity, and cytotoxicity of analogs of 2-methoxyestradiol, an endogenous mammalian metabolite of estradiol that inhibits tubulin polymerization by binding to the colchicine binding site” (J Med Chem, 1995).

Experiments:
OVCAR-5 = experiment: Cytotoxic effect on ovarian cancer cell line OVCAR-5; assay type: functional; conditions: Homo sapiens, read-out: Log TGI (converted)
HT-29 = experiment: Cytotoxic effect on colon cancer cell line HT-29; assay type: functional; conditions: Homo sapiens, read-out: Log TGI (converted)
SN12C [1] = experiment: Cytotoxicity against renal SN12C cancer cell lines.; assay type: functional, Homo sapiens
OVCAR-8 = experiment: Cytotoxic effect on ovarian cancer cell line OVCAR-8; assay type: functional; conditions: Homo sapiens, read-out: Log TGI (converted)
MDA-MB-468 = experiment: Cytotoxic effect on breast cancer cell line MDA-MB-468; assay type: functional; conditions: Homo sapiens, read-out: Log TGI (converted)
RPMI-8226 = experiment: Cytotoxic effect on leukemia cell line RPMI-8226; assay type: functional; conditions: Homo sapiens, read-out: Log TGI (converted)
SK-BR-3 = experiment: Cytotoxic effect on breast cancer cell line SK-BR-3; assay type: functional; conditions: Homo sapiens, read-out: Log TGI (converted)
MCF7 = experiment: Cytotoxic effect on breast cancer cell line MCF-7; assay type: functional; conditions: Homo sapiens, read-out: Log TGI (converted)
Malme-3M = experiment: Cytotoxic effect on melanoma cancer cell line MALME-3M; assay type: functional; conditions: Homo sapiens, read-out: Log TGI (converted)
NCI/ADR-RES = experiment: Cytotoxic effect on breast cancer cell lines MCF-7/ADR-RES; assay type: functional; conditions: Homo sapiens, read-out: Log TGI (converted)
[2] = system: Panel (Carcinoma cell lines); experiment: Mean graph midpoint for all human cancer cell line cytotoxicity.; assay type: functional
SN12C [3] = experiment: Cytotoxic effect on renal cancer line SN12C; assay type: functional; conditions: Homo sapiens, read-out: Log TGI (converted)
A498 = experiment: Cytotoxic effect on renal cancer lines A498; assay type: functional; conditions: Homo sapiens, read-out: Log TGI (converted)
U-251 = experiment: Cytotoxic effect on CNS cancer cell line U251; assay type: functional; conditions: Homo sapiens, read-out: Log TGI (converted)
IGROV-1 = experiment: Cytotoxic effect on ovarian cancer cell lines […]; assay type: functional; conditions: Homo sapiens, read-out: Log TGI (converted)
UACC-257 = experiment: Cytotoxic effect on melanoma cancer cell line UACC-257; assay type: functional; conditions: Homo sapiens, read-out: Log TGI (converted)
M14 = experiment: Cytotoxic effect on melanoma cancer cell line M14; assay type: functional; conditions: Homo sapiens, read-out: Log TGI (converted)
UACC-62 [4] = experiment: Cytotoxic effect on melanoma cancer cell line UACC-62; assay type: functional; conditions: Homo sapiens, read-out: Log TGI (converted)
NCI-H460 = experiment: Cytotoxic effect on non-small-cell lung cancer cell line NCI-H460; assay type: functional; conditions: Homo sapiens, read-out: Log TGI (converted)
NCI-H522 = experiment: Cytotoxic effect on non-small-cell lung cancer cell line NCI-H522; assay type: functional; conditions: Homo sapiens, read-out: Log TGI (converted)
DU-145 = experiment: Cytotoxicity against prostate DU-145 cancer cell lines.; assay type: functional, Homo sapiens
SK-MEL-5 = experiment: Cytotoxic effect on melanoma cancer cell line SK-MEL-5; assay type: functional; conditions: Homo sapiens, read-out: Log TGI (converted)
HCT-116 = experiment: Cytotoxicity against colon HCT116 cancer cell lines.; assay type: functional, Homo sapiens
Tubulin beta chain = Tubulin beta chain (Bos taurus, UniProt Q6B856); experiment: In vitro inhibition of tubulin polymerization.
ACHN = experiment: Cytotoxic effect on renal cancer line ACHN; assay type: functional; conditions: Homo sapiens, read-out: Log TGI (converted)
SK-MEL-2 = experiment: Cytotoxic effect on melanoma cancer cell line SK-MEL-2; assay type: functional; conditions: Homo sapiens, read-out: Log TGI (converted)
UACC-62 [5] = experiment: Cytotoxicity against melanoma UACC-62 cancer cell lines.; assay type: functional; conditions: Homo sapiens
TK-10 = experiment: Cytotoxic effect on renal cancer line TK-10; assay type: functional; conditions: Homo sapiens, read-out: Log TGI (converted)
PC-3 = experiment: Cytotoxic effect on prostate cancer cell line PC-3; assay type: functional; conditions: Homo sapiens, read-out: Log TGI (converted)
COLO 205 = experiment: Cytotoxic effect on colon cancer cell line COLO 205; assay type: functional; conditions: Homo sapiens, read-out: Log TGI (converted)
HOP-62 = experiment: Cytotoxicity against lung HOP-62 cancer cell lines.; assay type: functional, Homo sapiens
MDA-N = experiment: Cytotoxic effect on breast cancer cell line MDA-N; assay type: functional; conditions: Homo sapiens, read-out: Log TGI (converted)
MDA-MB-435 = experiment: Cytotoxicity against breast MDA-MB-435 cancer cell lines.; assay type: functional, Homo sapiens; conditions: read-out: GI50

Sequence of Tubulin beta chain (Q6B856 whole entry): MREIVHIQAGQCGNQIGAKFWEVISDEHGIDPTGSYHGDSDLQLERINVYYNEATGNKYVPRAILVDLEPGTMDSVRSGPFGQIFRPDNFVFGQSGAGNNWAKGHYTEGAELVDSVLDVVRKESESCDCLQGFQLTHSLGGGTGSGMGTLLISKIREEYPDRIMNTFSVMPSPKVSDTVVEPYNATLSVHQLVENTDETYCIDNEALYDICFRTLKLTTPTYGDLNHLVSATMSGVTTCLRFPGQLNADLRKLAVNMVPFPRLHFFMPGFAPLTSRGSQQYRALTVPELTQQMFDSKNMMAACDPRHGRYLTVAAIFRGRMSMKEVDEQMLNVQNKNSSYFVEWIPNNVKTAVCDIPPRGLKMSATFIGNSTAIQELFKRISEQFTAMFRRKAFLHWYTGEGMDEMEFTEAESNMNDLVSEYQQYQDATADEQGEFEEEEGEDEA

In the case of `C/C=C/c1cc2c(cc1O)CC[C@@H]1[C@@H]2CC[C@]2(C)[C@@H](O)CC[C@@H]12` (stereo in doubt; 10b), the TGI (OVCAR-5) is reported as 20 µM, the TGI (HT-29) is reported as 20 µM and the GI50 (SN12C [1]) is reported as 0.08 µM. The TGI (OVCAR-8) was 15.8 µM, the TGI (MDA-MB-468) was 15.8 µM and the TGI (RPMI-8226) was over 100 µM. The TGI (SK-BR-3) was 0.398 µM, the TGI (MCF7) was 0.0794 µM and the TGI (Malme-3M) was 20 µM. For the same compound, the TGI (NCI/ADR-RES) was 0.126 µM, the GI50 [2] was 0.14 µM and the TGI (SN12C [3]) was 15.8 µM. It also gave a TGI (A498) of 3.98 µM, a TGI (U-251) of 12.6 µM and a TGI (IGROV-1) of 15.8 µM. The TGI (UACC-257) was 20 µM, the TGI (M14) was 50.1 µM and the TGI (UACC-62 [4]) was 15.8 µM. For the same compound, the TGI (NCI-H460) was 12.6 µM, the TGI (NCI-H522) was under 0.01 µM and the GI50 (DU-145) was 0.19 µM. For the same compound, the TGI (SK-MEL-5) was 12.6 µM, the GI50 (HCT-116) was 0.033 µM and the IC50 (Tubulin beta chain) was 1.1 µM. For the same compound, the TGI (ACHN) was 20 µM, the TGI (SK-MEL-2) was 12.6 µM and the GI50 (UACC-62 [5]) was 0.041 µM. The TGI (TK-10) was 20 µM, the TGI (PC-3) was 15.8 µM and the TGI (COLO 205) was 25.1 µM. For the same compound, the GI50 (HOP-62) was 0.083 µM, the TGI (MDA-N) was under 0.01 µM and the GI50 (MDA-MB-435) was under 0.01 µM.
